Assay results reported in US20050171350A1, “Benzhydryl derivatives” (Fujisawa Pharamaceutical Co., Ltd., priority 2001, published 2005).

Columns and labels:
emesis in the dog = assay: Emesis in the Dog (apomorphine-induced retching and vomiting); format: in vivo; conditions: adult female dogs; test compound i.v. at the dose of 1.0 mg/kg; 5 min later subcutaneous apomorphine (0.1 mg/0.5 ml/kg); observed for 60 min
Procedure: Individually housed adult female dogs (8 to 15 kg) were given an i.v. injection of a solution containing a test compound. 5 Min later the emetic responses (retching and vomiting) were induced by administration of subcutaneous apomorphine (0.1 mg/0.5 ml/kg) and observed for the next 60 min. The timing and number of retches and vomits observed were recorded for each animal. An individual animal was tested with at least 10 days between experiments.

melting point	Structure (SMILES)	inhibition rate of emesis in the dog (emesis in the dog) [%]
139 to 143 °C	COc1nc(OC)c(CN2C[C@@H]3CN(C(=O)N4CCOCC4)CCN3[C@H](C(c3ccccc3)c3ccccc3)C2)c(OC)n1.Cl.Cl	
174 to 177 °C	COc1nc(C)c(CN2C[C@@H]3CN(C(=O)CO)CCN3[C@H](C(c3ccccc3)c3ccccc3)C2)c(OC)n1.Cl.Cl	
150 to 155 °C (dec.)	COc1nc(Cl)nc(OC)c1CN1C[C@@H]2CN(C(=O)CO)CCN2[C@H](C(c2ccccc2)c2ccccc2)C1.Cl.Cl	
150 to 152 °C (dec.)	CCOc1nc(OC)nc(OC)c1CN1C[C@@H]2CN(C(=O)CO)CCN2[C@H](C(c2ccccc2)c2ccccc2)C1.Cl.Cl	
145 to 148 °C (dec.)	COc1nc(OC)c(CN2C[C@@H]3CN(C(=O)CO)CCN3[C@H](C(c3ccccc3)c3ccccc3)C2)c(OC(C)C)n1.Cl.Cl	
98 to 101 °C (dec.)	COc1nc(Cl)c(CN2C[C@@H]3CN(C(=O)CO)CCN3[C@H](C(c3ccccc3)c3ccccc3)C2)c(OC)n1.Cl.Cl	
129 to 132 °C	COc1nc(C)nc(OC)c1CN1C[C@@H]2CN(C(=O)CO)CCN2[C@H](C(c2ccccc2)c2ccccc2)C1.Cl.Cl	
155 to 158 °C (dec.)	COc1nc(OC)c(CN2C[C@@H]3CN(C(=O)CO)CCN3[C@H](C(c3ccccc3)c3ccccc3)C2)c(OC)n1.Cl.Cl [Example 1, 2-[(6R, 9aR)-6-benzhydryl-8-[(2,4,6-trimethoxy-5-pyrimidinyl)methyl]octahydro-2H-pyrazino[1,2-a]pyrazin-2-yl]-2-oxoethanol dihydrochloride]	100
143 to 146 °C	COc1nc(OC)c(CN2C[C@@H]3CN(C(=O)CO)CCN3[C@H](C(c3ccccc3)c3ccccc3)C2)c(OCC(F)F)n1.Cl.Cl	
141 to 145 °C	COc1nc(OC)c(CN2C[C@@H]3CN(C(=O)CO)CCN3[C@H](C(c3ccccc3)c3ccccc3)C2)c(OC2CCC2)n1.Cl.Cl	
143 to 147 °C	COc1nc(OC)c(CN2C[C@@H]3CN(C(=O)c4cccnc4)CCN3[C@H](C(c3ccccc3)c3ccccc3)C2)c(OC(C)C)n1.Cl.Cl.Cl	
